This assay has as its system Deroceras reticulatum. As to the kind of experiment: Laboratory terraria barrier test on blotting paper (winter wheat seed hollowing, slug mortality). The format is in vivo. As to conditions: for slug mortality: barrier on blotting paper. The method, then:
Plastic trays (0.07 m^2) were lined with unbleached blotting paper and saturated with de-ionised water. Three groups of eight winter wheat seeds were placed into each tray and each group surrounded with approximately 1-2 g of test material, forming a barrier with approximately 1 cm diameter. Four slugs (Deroceras reticulatum) pre-starved for 24-48 hours were introduced to the trays. The tests were performed under controlled conditions (12 hours light 15° C.: 12 hours dark 15° C., 90% humidity). Five replicates were prepared per condition.
The trays were observed daily, for seven days, for seed hollowing and mortality. After the seven days, the slugs were replaced with naive slugs and the test run for a further seven days. Mortality was indicated by failure to respond to 12-volt D.C. stimuli.
Note: i) In all the experiments, a negative control was prepared consisting of slugs only, sawdust only, or “alcoholic” sawdust. ii) Metaldehyde (4%) was used as a positive control, to compare the toxicity properties of the 100% plant raw materials, rather than as a physical barrier.
The method is identical to that used in Example 1 above.

With `CC1OC(C)OC(C)OC(C)O1` (stereo not drawn) [metaldehyde (4%), metaldehyde], the seed hollowing (barrier around winter wheat seeds on blotting paper, first seven days (days 1 to 7)) is reported as 1%. Also, the slug mortality is on record as 100% (days 8 to 14) and 90% (first seven days).

For the origin of these results see US20050163815A1, “Use of plant materials as a terrestrial molluscicidal and/or molloscrepellant agent” (priority 2002, published 2005).
